The values that follow come from paper PMC10999085, “Synthesis, anticancer evaluation, molecular docking and ADME study of novel pyrido[4ʹ,3ʹ:3,4]pyrazolo[1,5-a]pyrimidines as potential tropomyosin receptor kinase A (TrKA) inhibitors” (BMC Chemistry, 2024).

The test system of data set [1] is HCT-116 cell line. The data set is described as follows: MTT assay, HCT-116 cell line. It counts as cell-based, human. To be noted: MTT, 24 hr treatment, in % (unit assumed). In a few lines:
(§1)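 Cells in RPMI-1640 with 10% FBS were seeded at 1.0x10^4 cells/well and cultured 48 h, then exposed to compound for 24 hr. Viability was measured by MTT reduction (4 hr), with formazan dissolved in DMSO and read at 570 nm, relative to untreated cells. Values are means of three independent triplicate experiments.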
(Formazan colour is commonly taken as a measure of viable cells.)

In data set [2] the target is T1, Tropomyosin receptor kinase A (TrKA) (Homo sapiens, UniProt P04629).
T1 construct: purchased
The data set is described as follows: Tropomyosin receptor kinase A (TrKA) inhibitory assay (Kinase-Glo MAX kit). To be noted: in vitro kinase assay, recombinant TrkA. Type of data set: biochemical. The source says:
The TrkA assay Kit is designed to measure TrkA activity for screening and profiling applications using Kinase-Glo® MAX as a detection reagent. The TrkA Assay Kit comes in a convenient 96-well format, with enough purified recombinant TrkA enzyme, TrkA substrate, ATP and kinase assay buffer for 100 enzyme reactions. The method was discussed in details in the ESI.
The TrkA assay Kit is designed to measure TrkA activity for screening and profiling applications using Kinase-Glo® MAX as a detection reagent. The TrkA Assay Kit comes in a convenient 96-well format, with enough purified recombinant TrkA enzyme, TrkA substrate, ATP and kinase assay buffer for 100 enzyme reactions.
The assay protocol: all samples and controls should be tested in duplicate. Dissolve 5x Kinase Assay Buffer 1, ATP, and PTK Substrate Poly (Glu:Tyr 4:1) (10 mg/ml). 2). The master mixture (25 μl per well) was prepared by N wells x (6 μl 5x Kinase Assay Buffer 1 + 1 μl ATP (500 μM) + 1 μl PTK Substrate Poly (Glu:Tyr 4:1) (10mg/ml) + 17 μl water). Add 5 μl of Inhibitor solution of each well labeled as “Test Inhibitor”. For the “Positive Control" and “Blank”, add 5 μl of the same solution without inhibitor (Inhibitor buffer). Prepare 3 ml of 1x Kinase assay buffer 1 by mixing 600 μl of 5x Kinase assay buffer 1 with 2400 μl water 3 ml of 1x Kinase assay buffer is sufficient for 100 reactions. To the wells designated as "Blank", add 20 μl of 1x Kinase assay buffer 1and thaw TrkA enzyme on ice. Upon first thaw, briefly spin tube containing enzyme to recover full content of the tube. Calculate the amount of TrkA required for the assay and dilute enzyme to 5 ng/μl with 1x Kinase assay buffer. Store remaining undiluted enzyme in aliquots at -80°C. Then initiate reaction by adding 20 μl of diluted TrkA enzyme to the wells designated “Positive Control” and "Test Inhibitor Control". Incubate at 30°C for 45minutes and thaw Kinase-Glo Max reagent. After the 45 minute reaction, add 50 μl of Kinase-Glo Max reagent to each well. Cover plate with aluminum foil and incubate the plate at room temperature for 15 minutes. Immediately read sample in a luminometer or microtiter-plate capable of reading chemiluminescence. “Blank” value is subtracted from all readings.

Data set [3] concerns HepG2 cell line. Put plainly: MTT assay, HepG2 cell line. It counts as cell-based, human. In outline: as §1
Data set [4] has as its system MCF7 cell line. The data set is described as follows: MTT assay, MCF7 cell line. Type of data set: cell-based, human. To be noted: 24 hr treatment, in % (unit assumed). In outline: as §1
Data set [5] deals with HepG2 cells. The data set is described as follows: Annexin V-FITC apoptosis assay. Type of data set: cell-based, human. The protocol:
HepG-2 cells were harvested and incubated with compounds 7b, 15b, 16a and 16c separately for 48 h. Then, the cells were collected and washed with PBS two successive times followed by centrifugation. After that, the cells were treated with Annexin V-FITC and propidium iodide (PI) using the apoptosis detection kit (BD Biosciences and Annexin V-FITC and PI binding were analyzed by a flow cytometer.
Early and late apoptosis was determined after treatment of HepG2 cells with compounds 7b, 15b, 16a and 16c compared with untreated control cells. The late apoptosis rate increased by about 13, 20, 4 and 3 times, respectively, showing a higher efficiency than the early apoptosis ratio 5, 2, 8 and 6 times, respectively.
As mentioned above, HepG-2 cells were collected and incubated separately with compounds 7b, 15b, 16a and 16c for 48 hr. Cells were then collected and washed twice consecutively with PBS and centrifuged. After that, the cells were treated with Annexin V-FITC and propidium iodide (PI) using an apoptosis detection kit (BD Biosciences, San Jose, CA) according to the manufacturer's instructions. The biding of Annexin V-FITC and PI was analyzed by ﬂow cytometer.

The test system of data set [6] is HepG2 cells. The data set is described as follows: In-vitro cell cycle analysis (PI flow cytometry). It counts as cell-based, human. How it is done:
HepG-2 cells are pre-cultured in 25 cm^2 cell culture flask. RPMI-1640 medium was used. Tested compounds 7b, 9c, 15b, 16a and 16c were used in the cell treatment at their IC50 by dissolving them in the required medium separately. The procedure was discussed in details in the ESI.
For cell cycle analysis, stained DNA from HepG2 cancer cells was treated with compounds 7b, 15b, 16a and 16c that induce cancer cell death by inhibiting TrKA. From the results in Table 5, it can be seen that the proportion of cells at phase in the pre-G1 of compounds 7b, 15b, 16a and 16c increased the proportion of cells at phase in the G2/M by about 4, 4, 2.5 and 3 folds, respectively.
HepG-2 cells were pre-cultured in 25 cm^2 cell culture flasks; RPMI-1640 medium was used. Tested compounds 7b, 15b, 16a and 16c were dissolved separately in the required medium and used in the cell treatment at their IC50. After overnight treatment the cells were collected and fixed gently with 70% (v/v) ethanol in PBS, incubated overnight at 4 °C, and resuspended in PBS containing 40 µg/ml propidium iodide (PI), 0.1 mg/ml RNase and 0.1% (v/v) Triton X-100 in the dark room at after 30 min at 37 °C, the cell cycle analysis was performed using a flow cytometer, equipped with an argon ion laser at a wavelength of 488 nm (Becton-Dickinson, San Josa, CA, USA) and the percentage of cells at G1, S and G2/M was also calculated.
A general note: In flow cytometry, cells or beads pass a laser one at a time.

The test system of data set [7] is Trk family. Details: method as in earlier work. As to conditions: cited from earlier work.
Setting [8] is: HepG2, compared with untreated control cells.

As a reminder, the pIC50 is the IC50 on a negative log10 scale, so that one unit is a factor of ten.

SMILES strings stand for the structures. pIC50: −log10 of the molar value. Values after ≈ are worked out from the molar mass of the structure shown. “Also recorded” adds a separate entry of the source.

T1 sequence (P04629 33-796): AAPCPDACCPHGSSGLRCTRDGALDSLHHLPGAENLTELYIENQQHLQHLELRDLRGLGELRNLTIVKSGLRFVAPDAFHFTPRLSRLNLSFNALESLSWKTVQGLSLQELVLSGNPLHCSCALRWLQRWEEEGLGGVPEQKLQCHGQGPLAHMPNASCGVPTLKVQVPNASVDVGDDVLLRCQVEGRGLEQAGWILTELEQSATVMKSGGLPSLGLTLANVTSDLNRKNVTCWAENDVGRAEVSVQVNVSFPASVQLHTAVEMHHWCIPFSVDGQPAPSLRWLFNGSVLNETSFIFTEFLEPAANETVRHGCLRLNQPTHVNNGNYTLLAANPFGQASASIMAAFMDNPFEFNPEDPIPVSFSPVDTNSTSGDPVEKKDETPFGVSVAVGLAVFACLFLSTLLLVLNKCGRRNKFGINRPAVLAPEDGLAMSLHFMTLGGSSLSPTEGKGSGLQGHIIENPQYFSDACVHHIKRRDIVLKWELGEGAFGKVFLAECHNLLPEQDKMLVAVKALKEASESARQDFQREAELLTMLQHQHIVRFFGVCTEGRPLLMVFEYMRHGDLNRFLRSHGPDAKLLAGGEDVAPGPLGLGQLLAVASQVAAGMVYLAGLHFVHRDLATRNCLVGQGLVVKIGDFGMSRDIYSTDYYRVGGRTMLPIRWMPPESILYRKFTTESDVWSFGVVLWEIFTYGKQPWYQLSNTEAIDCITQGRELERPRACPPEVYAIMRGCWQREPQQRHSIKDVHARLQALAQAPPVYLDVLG

For the molecule `COc1ccc(C=C2C(=O)NC(=O)c3c2nn2c(O)cc(C)nc32)cc1` [Compound 15b, 4-Hydroxy-7-(4-methoxybenzylidene)-2-methylpyrido[4ʹ,3ʹ:3,4]pyrazolo[1,5-a]pyrimidine-8,10(7H,9H)-dione], the “Cytotoxicity at 5 µg/l” value in data set [1] (HCT116, 5 µg/l) is recorded as 26.10. Further, in data set [1] (HCT116, 10 µg/l), the “Cytotoxicity at 10 µg/l” value stood at 66.87. Besides, the “Cytotoxicity at 20 µg/l” value in data set [1] (HCT116, 20 µg/l) came to 84.20. The pIC50 in data set [2] was 6.54. Further, the “Cytotoxicity at 5 µg/l” value in data set [3] (HepG2, 5 µg/l, MTT, 24 hr treatment, in % (unit assumed)) turned out to be 49.48. The “Cytotoxicity at 10 µg/l” value in data set [3] (HepG2, 10 µg/l, MTT, 24 hr treatment, in % (unit assumed)) is 75.98. For the same molecule, the “Cytotoxicity at 20 µg/l” value in data set [3] (HepG2, 20 µg/l, MTT, 24 hr treatment, in % (unit assumed)) is 78.66. The IC50 in data set [3] (Homo sapiens, HepG2, MTT, read-out: IC50 (drug concentration that inhibited 50% of cell proliferation)) came to 4.64 ng/mL (≈ 0.0132 µM). Further, in data set [4] (MCF7, 5 µg/l), the “Cytotoxicity at 5 µg/l” value was 28.52. Besides, the “Cytotoxicity at 10 µg/l” value in data set [4] (MCF7, 10 µg/l) is listed as 62.92. In addition, the “Cytotoxicity at 20 µg/l” value in data set [4] (MCF7, 20 µg/l) was determined as 83.62. In data set [5] (HepG2, 48 h, Annexin V-FITC/PI), the “Apoptosis Early” value was determined as 2.93%, the “Apoptosis Late” value is reported as 20.12% and the Necrosis is 9.46%. The molecule further gave an apoptosis-inducing effect in data set [5] (HepG2, as stated in the abstract) of 36.72%. For the same molecule, in data set [5] (setting [8]), the “increase of early apoptosis ratio” value was 2 times and the “increase of late apoptosis rate” value is on record as around 20 times. Moreover, the “Cell cycle comment (phase of arrest)” value in data set [6] (HepG2) was “arrested in the cell cycle at G2/M phase; also recorded: arrest in cell cycle at the G2/M phase; also recorded: cell growth arrest@G2/M”. Moreover, in data set [6] (HepG2, compound at its IC50), the “DNA content %G0-G1” value was 33.57%, the “DNA content %G2/M” value is recorded as 36.72%, the “DNA content %Pre-G1” value came to 32.51% and the “DNA content %S” value worked out at 29.71%. For the same molecule, the “increase of the proportion of cells in the G2/M phase” value in data set [6] (HepG2, versus control) was “about 4 folds”.

For the molecule `O=C(Nc1cnn2ccc(N3CCC[C@@H]3c3cc(F)ccc3F)nc12)N1CC[C@H](O)C1` [Larotrectinib], the pIC50 in data set [7] was 7.70 to 8.70.
